In assay [1] the target is Aurora kinase B (Homo sapiens) (UniProt Q96GD4). The assay is described as follows: Inhibition of human AuroraB assessed as residual activity at 1 uM using bio-4xCHKT as substrate in presence of 33P-ATP by ProQinase assay relative to control.
Assay [2] has as its target Serine/threonine-protein kinase RIO3 (Homo sapiens) (UniProt O14730). Description: Inhibition of RIOK3 (unknown origin) assessed as remaining activity at 1 uM by Kinome scan method relative to control.
For assay [3], the target named is Rho-associated protein kinase 1 (Homo sapiens) (UniProt Q13464). Description: Inhibition of human ROCK1 assessed as residual activity at 1 uM using 3xChocktide-PKC(19-31) as substrate in presence of 33P-ATP by ProQinase assay relative to control.
Rho-associated protein kinase 1 (Homo sapiens), sequence (Q13464 2-1354 limits assumed): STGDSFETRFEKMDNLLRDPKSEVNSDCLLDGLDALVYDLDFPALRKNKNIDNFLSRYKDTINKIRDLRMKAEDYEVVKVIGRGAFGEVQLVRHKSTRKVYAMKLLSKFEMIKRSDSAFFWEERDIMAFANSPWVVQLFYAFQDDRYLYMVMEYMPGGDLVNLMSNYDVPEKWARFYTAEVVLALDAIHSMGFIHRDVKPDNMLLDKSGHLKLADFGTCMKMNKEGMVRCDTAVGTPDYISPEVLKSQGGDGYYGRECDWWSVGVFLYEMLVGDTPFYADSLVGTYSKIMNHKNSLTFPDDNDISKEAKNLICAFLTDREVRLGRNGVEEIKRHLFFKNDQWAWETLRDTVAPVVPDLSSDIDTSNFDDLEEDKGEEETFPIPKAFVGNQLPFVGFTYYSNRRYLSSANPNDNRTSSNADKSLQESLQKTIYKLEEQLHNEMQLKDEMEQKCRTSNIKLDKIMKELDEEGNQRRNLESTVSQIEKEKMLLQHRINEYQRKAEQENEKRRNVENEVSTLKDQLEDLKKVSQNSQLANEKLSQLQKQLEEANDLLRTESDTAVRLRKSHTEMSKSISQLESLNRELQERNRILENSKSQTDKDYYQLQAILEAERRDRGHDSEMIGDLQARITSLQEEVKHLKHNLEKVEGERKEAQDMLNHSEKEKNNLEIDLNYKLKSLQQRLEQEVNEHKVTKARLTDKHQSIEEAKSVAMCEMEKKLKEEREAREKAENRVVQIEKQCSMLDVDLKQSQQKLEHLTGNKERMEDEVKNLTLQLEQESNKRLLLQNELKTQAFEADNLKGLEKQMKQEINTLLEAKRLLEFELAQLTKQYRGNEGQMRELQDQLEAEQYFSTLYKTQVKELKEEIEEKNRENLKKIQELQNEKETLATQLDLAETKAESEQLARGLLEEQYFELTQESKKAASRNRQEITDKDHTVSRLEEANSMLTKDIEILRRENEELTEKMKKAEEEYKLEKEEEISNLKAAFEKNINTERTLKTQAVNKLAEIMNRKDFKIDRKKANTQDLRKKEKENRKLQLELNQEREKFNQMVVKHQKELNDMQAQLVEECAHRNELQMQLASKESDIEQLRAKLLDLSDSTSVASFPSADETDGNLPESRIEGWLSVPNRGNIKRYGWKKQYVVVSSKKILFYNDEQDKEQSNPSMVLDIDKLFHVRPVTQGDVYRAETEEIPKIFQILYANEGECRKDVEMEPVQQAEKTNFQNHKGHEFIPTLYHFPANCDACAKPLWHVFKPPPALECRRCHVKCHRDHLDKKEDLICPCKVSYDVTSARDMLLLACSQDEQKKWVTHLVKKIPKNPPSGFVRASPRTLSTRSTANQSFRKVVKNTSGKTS
In assay [4] the target is Ribosomal protein S6 kinase alpha-5 (Homo sapiens) (UniProt O75582). Description: Inhibition of human RPS6KA5 assessed as residual activity at 1 uM using RBER-CHKtide as substrate in presence of 33P-ATP by ProQinase assay relative to control.
Ribosomal protein S6 kinase alpha-5 (Homo sapiens), sequence (O75582 whole entry, looked up): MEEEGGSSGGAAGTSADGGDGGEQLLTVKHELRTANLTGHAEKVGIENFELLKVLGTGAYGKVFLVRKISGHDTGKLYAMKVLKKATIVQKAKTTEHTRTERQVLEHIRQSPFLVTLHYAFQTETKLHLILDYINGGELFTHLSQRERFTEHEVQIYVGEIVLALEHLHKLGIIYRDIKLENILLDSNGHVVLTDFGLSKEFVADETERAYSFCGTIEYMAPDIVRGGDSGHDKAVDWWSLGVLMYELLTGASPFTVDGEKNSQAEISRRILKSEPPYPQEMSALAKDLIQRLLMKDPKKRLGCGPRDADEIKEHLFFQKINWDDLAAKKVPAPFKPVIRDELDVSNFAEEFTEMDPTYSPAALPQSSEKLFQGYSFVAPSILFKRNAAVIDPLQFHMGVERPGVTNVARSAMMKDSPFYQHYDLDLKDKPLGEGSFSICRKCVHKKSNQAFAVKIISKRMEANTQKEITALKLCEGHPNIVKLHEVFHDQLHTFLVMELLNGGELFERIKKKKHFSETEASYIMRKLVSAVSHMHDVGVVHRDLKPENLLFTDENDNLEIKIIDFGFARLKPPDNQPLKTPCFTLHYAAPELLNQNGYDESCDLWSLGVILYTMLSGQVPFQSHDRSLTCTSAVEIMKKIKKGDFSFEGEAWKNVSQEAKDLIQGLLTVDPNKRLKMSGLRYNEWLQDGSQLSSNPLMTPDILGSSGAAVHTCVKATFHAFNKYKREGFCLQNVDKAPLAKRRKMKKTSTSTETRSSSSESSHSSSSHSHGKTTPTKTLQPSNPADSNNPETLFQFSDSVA
For assay [5], the target named is Homeodomain-interacting protein kinase 1 (Homo sapiens) (UniProt Q86Z02). The assay is described as follows: Inhibition of HIPK1 (unknown origin) assessed as remaining activity at 1 uM by Kinome scan method relative to control.
Assay [6] has as its target CDK1/Cyclin E (Homo sapiens) (UniProt P06493+P24864). Description: Inhibition of human CDK1/Cyclin E1 assessed as residual activity at 1 uM using RBER-CHKtide as substrate in presence of 33P-ATP by ProQinase assay relative to control. Format: protein-complex assay.
Assay [7] has as its system Phosphatidylinositol 4,5-bisphosphate 3-kinase catalytic subunit alpha isoform (Homo sapiens), P42336 [E545K]. The assay is described as follows: Inhibition of PIK3CA E545K mutant (unknown origin) assessed as remaining activity at 1 uM by Kinome scan method relative to control.
Assay [8] has as its target Serine/threonine-protein kinase PAK 3 (Homo sapiens) (UniProt O75914). Description: Inhibition of PAK3 (unknown origin) assessed as remaining activity at 1 uM by Kinome scan method relative to control.
For assay [9], the target named is Vascular endothelial growth factor receptor 2 (Homo sapiens) (UniProt P35968). The assay is described as follows: Inhibition of VEGFR2 (unknown origin) assessed as remaining activity at 1 uM by Kinome scan method relative to control.
Vascular endothelial growth factor receptor 2 (Homo sapiens), sequence (P35968 whole entry): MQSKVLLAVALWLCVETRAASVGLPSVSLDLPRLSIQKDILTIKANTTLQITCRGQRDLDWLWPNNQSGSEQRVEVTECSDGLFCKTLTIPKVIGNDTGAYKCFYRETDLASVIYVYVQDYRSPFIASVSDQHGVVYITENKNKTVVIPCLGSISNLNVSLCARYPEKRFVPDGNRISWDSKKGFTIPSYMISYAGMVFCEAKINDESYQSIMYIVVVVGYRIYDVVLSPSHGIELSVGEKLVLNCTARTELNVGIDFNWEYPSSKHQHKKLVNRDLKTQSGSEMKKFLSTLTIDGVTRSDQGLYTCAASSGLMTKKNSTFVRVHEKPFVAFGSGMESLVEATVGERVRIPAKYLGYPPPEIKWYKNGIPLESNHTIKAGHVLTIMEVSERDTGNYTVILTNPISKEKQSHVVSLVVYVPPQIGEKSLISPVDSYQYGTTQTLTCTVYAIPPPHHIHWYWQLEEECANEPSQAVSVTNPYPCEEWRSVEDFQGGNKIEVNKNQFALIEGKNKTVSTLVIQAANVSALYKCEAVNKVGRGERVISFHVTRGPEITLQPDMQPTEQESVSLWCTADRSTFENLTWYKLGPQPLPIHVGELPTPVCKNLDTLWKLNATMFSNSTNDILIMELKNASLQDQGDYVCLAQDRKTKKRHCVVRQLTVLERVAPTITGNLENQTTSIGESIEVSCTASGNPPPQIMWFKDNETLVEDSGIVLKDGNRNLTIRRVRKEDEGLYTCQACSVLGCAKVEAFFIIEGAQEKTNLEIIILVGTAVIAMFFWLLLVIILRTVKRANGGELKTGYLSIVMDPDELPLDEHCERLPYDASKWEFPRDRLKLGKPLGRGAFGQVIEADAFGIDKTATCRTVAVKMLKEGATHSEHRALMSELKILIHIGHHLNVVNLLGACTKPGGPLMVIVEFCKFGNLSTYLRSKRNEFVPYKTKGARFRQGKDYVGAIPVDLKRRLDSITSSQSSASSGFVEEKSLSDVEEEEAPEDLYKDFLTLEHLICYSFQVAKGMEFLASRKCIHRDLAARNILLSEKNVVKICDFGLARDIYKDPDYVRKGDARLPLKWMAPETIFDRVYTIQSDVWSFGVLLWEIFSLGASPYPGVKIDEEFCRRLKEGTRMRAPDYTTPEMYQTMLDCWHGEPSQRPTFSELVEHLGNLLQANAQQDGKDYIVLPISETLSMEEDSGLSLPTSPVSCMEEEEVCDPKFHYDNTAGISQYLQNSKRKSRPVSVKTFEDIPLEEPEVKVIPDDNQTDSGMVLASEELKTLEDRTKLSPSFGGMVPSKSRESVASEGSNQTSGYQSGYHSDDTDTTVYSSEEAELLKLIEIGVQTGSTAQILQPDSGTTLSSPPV
The subject of assay [10] is Hepatocyte growth factor receptor (Homo sapiens), P08581 [F1200I]. The assay is described as follows: Inhibition of human MET F1200I mutant assessed as residual activity at 1 uM using poly(Ala,Glu,Lys,Tyr)6:2:5:1 as substrate in presence of 33P-ATP by ProQinase assay relative to control.
A short description of assay [11]: Anti-inflammatory activity against human derived high respond PBMC cells assessed as inhibition in stimulated IL-1beta cytokine release incubated for 2 hrs in the presence of LPS/SEB/aCD28 by Luminex based sandwich immunoassay. It counts as functional, cell-based.
Assay [12] deals with Tyrosine-protein kinase Fer (Homo sapiens) (UniProt P16591). The assay is described as follows: Inhibition of FER (unknown origin) assessed as remaining activity at 1 uM by Kinome scan method relative to control.
The target in assay [13] is Proto-oncogene tyrosine-protein kinase receptor Ret (Homo sapiens) (UniProt P07949). The assay is described as follows: Inhibition of human RET assessed as residual activity at 1 uM using polyEY as substrate in presence of 33P-ATP by ProQinase assay relative to control.
Assay [14] is described as follows: Anti-inflammatory activity against human derived high respond PBMC cells assessed as inhibition in stimulated TNF-alpha cytokine release incubated for 2 hrs in the presence of LPS/SEB/aCD28 by Luminex based sandwich immunoassay. It counts as functional, cell-based.
The target in assay [15] is Ribosomal protein S6 kinase alpha-6 (Homo sapiens) (UniProt Q9UK32). The assay is described as follows: Inhibition of human RPS6KA6 assessed as residual activity at 1 uM using RBER-GSK3(14-27) as substrate in presence of 33P-ATP by ProQinase assay relative to control.
The target in assay [16] is Receptor tyrosine-protein kinase erbB-4 (Homo sapiens) (UniProt Q15303). The assay is described as follows: Inhibition of human ERBB4 assessed as residual activity at 1 uM using polyEy as substrate in presence of 33P-ATP by ProQinase assay relative to control.
In assay [17] the target is T1, Ephrin type-A receptor 1 (Homo sapiens) (UniProt P21709).
T1 sequence (whole entry): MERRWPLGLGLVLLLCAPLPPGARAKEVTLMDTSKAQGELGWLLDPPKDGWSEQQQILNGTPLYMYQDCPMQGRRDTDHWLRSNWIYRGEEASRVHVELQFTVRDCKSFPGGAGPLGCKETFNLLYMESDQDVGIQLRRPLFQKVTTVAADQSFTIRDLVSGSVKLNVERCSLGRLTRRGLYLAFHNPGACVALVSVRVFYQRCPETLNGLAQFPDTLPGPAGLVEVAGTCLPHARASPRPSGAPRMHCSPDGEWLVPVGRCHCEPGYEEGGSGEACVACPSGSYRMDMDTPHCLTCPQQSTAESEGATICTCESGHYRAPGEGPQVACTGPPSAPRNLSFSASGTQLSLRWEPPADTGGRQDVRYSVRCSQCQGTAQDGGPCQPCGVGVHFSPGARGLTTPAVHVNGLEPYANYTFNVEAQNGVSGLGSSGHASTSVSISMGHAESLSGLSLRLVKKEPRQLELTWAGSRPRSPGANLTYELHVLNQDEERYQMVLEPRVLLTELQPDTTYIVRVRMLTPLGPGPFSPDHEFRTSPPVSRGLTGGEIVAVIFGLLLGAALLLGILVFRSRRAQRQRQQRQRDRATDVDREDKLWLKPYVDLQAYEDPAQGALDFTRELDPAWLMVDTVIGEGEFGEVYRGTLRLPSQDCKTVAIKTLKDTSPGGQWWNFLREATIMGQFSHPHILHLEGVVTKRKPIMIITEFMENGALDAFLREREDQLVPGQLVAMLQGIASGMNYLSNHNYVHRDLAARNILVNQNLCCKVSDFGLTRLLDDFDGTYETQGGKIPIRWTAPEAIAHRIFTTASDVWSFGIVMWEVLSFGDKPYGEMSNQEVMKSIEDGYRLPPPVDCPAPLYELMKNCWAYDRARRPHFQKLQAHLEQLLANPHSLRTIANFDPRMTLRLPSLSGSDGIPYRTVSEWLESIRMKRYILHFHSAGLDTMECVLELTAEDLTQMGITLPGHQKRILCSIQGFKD
Description: Inhibition of human EPHA1 assessed as residual activity at 1 uM using polyEY as substrate in presence of 33P-ATP by ProQinase assay relative to control.

For assay [18], the target named is Inhibitor of nuclear factor kappa-B kinase subunit beta (Homo sapiens) (UniProt O14920). The assay is described as follows: Inhibition of human IKKbeta assessed as residual activity at 1 uM using RBER-CHKtide as substrate in presence of 33P-ATP by ProQinase assay relative to control.
Inhibitor of nuclear factor kappa-B kinase subunit beta (Homo sapiens), sequence (O14920 whole entry): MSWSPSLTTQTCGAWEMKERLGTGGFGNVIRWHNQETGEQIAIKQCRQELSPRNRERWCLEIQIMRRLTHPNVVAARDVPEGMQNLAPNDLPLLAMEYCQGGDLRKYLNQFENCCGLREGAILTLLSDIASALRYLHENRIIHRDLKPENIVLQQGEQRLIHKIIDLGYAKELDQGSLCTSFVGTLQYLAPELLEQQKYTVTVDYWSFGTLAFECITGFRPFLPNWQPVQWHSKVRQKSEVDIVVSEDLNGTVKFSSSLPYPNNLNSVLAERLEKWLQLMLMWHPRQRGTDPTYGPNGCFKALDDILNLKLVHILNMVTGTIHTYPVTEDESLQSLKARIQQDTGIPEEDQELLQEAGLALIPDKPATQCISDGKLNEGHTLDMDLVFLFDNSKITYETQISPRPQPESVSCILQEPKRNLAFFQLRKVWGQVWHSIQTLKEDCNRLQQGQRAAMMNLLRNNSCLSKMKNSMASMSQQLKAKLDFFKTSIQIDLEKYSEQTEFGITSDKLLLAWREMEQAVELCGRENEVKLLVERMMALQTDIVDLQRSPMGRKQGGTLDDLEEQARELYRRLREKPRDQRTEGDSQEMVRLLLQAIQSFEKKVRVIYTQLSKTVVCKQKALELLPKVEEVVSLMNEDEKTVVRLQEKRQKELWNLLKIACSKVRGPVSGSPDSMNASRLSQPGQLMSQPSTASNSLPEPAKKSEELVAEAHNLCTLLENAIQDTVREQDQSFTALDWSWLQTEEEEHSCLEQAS
For assay [19], the target named is Ephrin type-B receptor 2 (Homo sapiens) (UniProt P29323). The assay is described as follows: Inhibition of human EPHB2 assessed as residual activity at 1 uM using poly(Ala,Glu,Lys,Tyr)6:2:5:1 as substrate in presence of 33P-ATP by ProQinase assay relative to control.

Serine/threonine-protein kinase RIO3 (Homo sapiens), sequence (O14730 whole entry): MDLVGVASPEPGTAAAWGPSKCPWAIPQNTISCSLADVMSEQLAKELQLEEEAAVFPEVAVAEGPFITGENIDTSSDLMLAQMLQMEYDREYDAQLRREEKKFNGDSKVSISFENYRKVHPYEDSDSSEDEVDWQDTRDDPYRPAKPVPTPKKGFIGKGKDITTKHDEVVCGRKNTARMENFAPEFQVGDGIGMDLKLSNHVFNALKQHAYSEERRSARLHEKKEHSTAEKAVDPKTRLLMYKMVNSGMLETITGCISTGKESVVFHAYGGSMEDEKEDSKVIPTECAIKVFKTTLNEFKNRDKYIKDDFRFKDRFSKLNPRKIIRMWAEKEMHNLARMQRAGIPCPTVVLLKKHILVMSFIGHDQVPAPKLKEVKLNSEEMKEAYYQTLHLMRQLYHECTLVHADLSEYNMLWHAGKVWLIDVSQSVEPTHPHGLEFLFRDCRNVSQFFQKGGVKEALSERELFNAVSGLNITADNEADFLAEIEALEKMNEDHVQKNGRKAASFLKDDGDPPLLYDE

On to `O=C1c2ccc(Nc3ccc(F)cc3F)cc2CCc2ccc(OC[C@H](O)CO)cc21` [Skepinone-L], for which the Activity in [1] turned out to be 96%; in assay [2], 99%; in assay [3], 97%; in [4], 77%; in assay [5], 100%; in assay [6], 87%. The Activity in [7] came to 100%; in assay [8], 100%; in [9] it was 100%; in [10], 96%; in [12] it was 100%; in assay [13], 102%. For the same compound, the Activity was found to be 85% in assay [15]; 106% in [16]; 115% in [17]; 81% in assay [18]; 91% in [19]. For the same compound, the results for the IC50 in assay [11] and in [14] were 30 nM and 50 nM, respectively.

Values taken from ChEMBL document CHEMBL5696441 (Nat Chem Biol, 2011).
